{
  "source": "patent US20140303242A1",
  "about": "“Sparstolonin B Based Pharmaceutical Agent to Treat Pathological Angiogensis” (University of South Carolina, priority 2013, published 2014)",
  "key": {"[1]": {"test_system": "human aortic smooth muscle cells", "assay": "Cytotoxicity on human aortic smooth muscle cells", "format": "cell-based", "settings": "concentrations up to 100 μM"}, "HUVECs [2]": {"test_system": "HUVECs", "assay": "Transwell insert cell migration assay (VEGF-induced)", "format": "cell-based, human", "settings": "8 h", "method": "The cell invasion assay was performed with a Transwell insert system (6.5 mm diameter inserts with 8.0 μm pores in a polycarbonate membrane situated in wells of 24 well polystrene, tissue culture treated plates, Corning Incorporated, Corning, N.Y.). The Transwell inserts were coated with 0.1% gelatin for 30 min and incubated in low serum medium for 1 h. Cultured HUVECs were trypsinized and then resuspended in low serum medium (0.5% fetal bovine serum without endothelial cell mitogen), and added at 50,000 cells per insert. The cells were allowed to adhere to the inserts for 30 min. Next, various concentrations of SsnB (0.0001, 0.001, 0.01, 0.1, 1, 10, and 100 μM) or vehicle control (0.1% DMSO) were added to the Transwell inserts. After 30 min, the medium in the lower chamber for the experimental groups was replaced with low serum medium containing 10 ng/ml VEGF and thus establishing a chemoattractant gradient between the top insert and lower chamber. For the negative control group, the medium was replaced with low serum medium (0.5% fetal bovine serum). The plates were incubated for 8 h at 37° C. During the incubation, the cells migrated through the pores of the Transwell insert towards the lower chamber. […] Cells were counted from four random fields observed with a 10× objective lens. […]"}, "HCAECs": {"test_system": "HCAECs", "assay": "Microarray gene expression analysis (HCAECs)", "format": "cell-based, human", "settings": "24 h", "method": "(§1) Confluent plates (100×20 mm polystyrene, tissue culture-treated petri plates coated with 0.1% gelatin, 75% confluent) of HUVECs and HCAECs (four plates for HUVECs, n=2, and six plates for HCAECs, n=3) were chosen for the microarray experiments. Half of the plates received complete growth medium (10% fetal bovine serum with endothelial mitogen) containing vehicle control (0.1% DMSO), and the remaining plates received complete growth medium containing 100 μM SsnB. The plates were incubated for 24 h to allow SsnB to have an effect on cellular gene expression. Following incubation, RNA isolation was completed with the RNeasy Mini kit from Qiagen. The cells were lysed, and RNA was isolated by using the RNeasy spin columns and following the protocol provided by Qiagen. Purified RNA was sent to the Medical University of South Carolina Proteogenomics Facility for microarray analysis. The GeneChip Human Genome U133 Plus 2.0 Array was utilized to track changes in gene expression due to SsnB treatment. Complete data was uploaded to the NCBI Gene Expression Omnibus database (accession number GSE44598).\n(§2) Microarray data analysis, including data normalization (robust multi-array average), identification of differentially expressed genes (comparative analyses with dChip software), and heat map construction, was carried out to determine how SsnB affects gene expression and affected pathways (n=2 for HUVECs and n=3 for HCAECs). After a careful analysis of the microarray data, several key genes were chosen for qRT-PCR to verify the gene expression results. The genes were chosen based on the following criteria: fold change ≧2, p<0.05, unpaired t-test with a false discovery rate approximating 0%, appearing in both data sets (HUVECs and HCAECs), and gene function relating to cell proliferation and/or angiogenesis. For qRT-PCR, the expression levels were normalized to the housekeeping gene GAPDH, and RNA levels were compared between groups with the ΔΔCt method."}, "[3]": {"test_system": "Toll-like Receptors 2 and 4 (TLR2 and TLR4)", "settings": "mouse and human macrophages, prior research; cited from earlier work"}, "HUVECs [4]": {"test_system": "HUVECs", "assay": "Matrigel tube formation assay (HUVECs)", "format": "cell-based, human", "settings": "concentrations between 1 and 100 μM, 4 h, p<0.05", "method": "To initially determine if SsnB inhibited pro-angiogenic cell functions, a tube formation assay with Matrigel was performed. Growth factor reduced Matrigel (BD Biosciences, Bedford, Mass.) was added to the wells of a 96 well polystyrene culture plate and incubated at 37° C. for 30 minutes. Cells (HUVECs, HCAECs, or HMVECs at passage 2 to 4) were added to each well to reach a final number of 20,000 cells per well. SsnB was added to the wells at a concentration of 1, 10, or 100 μM. Endothelial cell medium with DMSO (0.1%) was used as a vehicle control. Each group contained 4 replicates. The plates were placed in an incubator for 4 h. During the incubation, the endothelial cells formed elongated structures called cords, also known as tubes. After 4 h, neutral buffered formalin was added to fix the cells. Pictures of three non-overlapping fields were taken from each well. The lengths of single cell endothelial cords were measured with Image-Pro Plus (Media Cybernetics, Silver Spring, Md.), and the sum of tube lengths for each well was determined. The average total length and standard deviation for each group were determined, and the appropriate statistical tests (ANOVA and Newman-Keuls) were completed. The tube formation assay was replicated three times for both HUVECs and HCAECs. The assay was also repeated with cardiac HMVECs."}, "HUVECs [5]": {"test_system": "HUVECs", "assay": "Cytotoxicity on HUVECs", "format": "cell-based, human", "settings": "concentrations up to 100 μM"}, "HUVECs [6]": {"test_system": "HUVECs", "assay": "Microarray gene expression analysis (HUVECs)", "format": "cell-based, human", "method": "as §1, §2"}, "[7]": {"settings": "HUVECs, 100 μM SsnB vs vehicle control, 24 h"}, "[8]": {"settings": "microarray data, cell type not specified"}},
  "data": [
    {"smiles": "O=c1occ2c3c(ccc(O)c13)Oc1ccc(O)cc1-2", "note": "[SsnB, Sparstolonin B]", "values": [
      {"measurement": "cytotoxic effects", "setting": "[1]", "value": "does not exhibit cytotoxic effects"},
      {"measurement": "VEGF-induced cell migration inhibition, high concentrations", "setting": "HUVECs [2]; between 0.1 and 100 μM", "value": "leveled off"},
      {"measurement": "VEGF-induced cell migration", "setting": "HUVECs [2]; concentrations between 0.0001 and 0.1 μM, p<0.05", "value": "dose-dependent inhibition"},
      {"measurement": "ALDH3A1 Microarray Fold change value", "setting": "HCAECs; 100 μM SsnB vs vehicle control", "value": 8.8},
      {"measurement": "ANLN Microarray Fold change value", "setting": "HCAECs; 100 μM SsnB vs vehicle control", "value": 0.11},
      {"measurement": "CCNB1 Microarray Fold change value", "setting": "HCAECs; 100 μM SsnB vs vehicle control", "value": 0.16},
      {"measurement": "CCNE2 Microarray Fold change value", "setting": "HCAECs; 100 μM SsnB vs vehicle control", "value": 0.38},
      {"measurement": "CDC2 Microarray Fold change value", "setting": "HCAECs; 100 μM SsnB vs vehicle control", "value": 0.20},
      {"measurement": "CDC6 Microarray Fold change value", "setting": "HCAECs; 100 μM SsnB vs vehicle control", "value": 0.18},
      {"measurement": "CDKN3 Microarray Fold change value", "setting": "HCAECs; 100 μM SsnB vs vehicle control", "value": 0.18},
      {"measurement": "DIAPH3 Microarray Fold change value", "setting": "HCAECs; 100 μM SsnB vs vehicle control", "value": 0.38},
      {"measurement": "HMMR Microarray Fold change value", "setting": "HCAECs; 100 μM SsnB vs vehicle control", "value": 0.20},
      {"measurement": "KITLG Microarray Fold change value", "setting": "HCAECs; 100 μM SsnB vs vehicle control", "value": 2.1},
      {"measurement": "number of differentially expressed genes in response to SsnB exposure", "setting": "HCAECs; 100 μM, fold change ≧2, p<0.05", "value": 356, "unit": "genes"},
      {"measurement": "inflammatory responses of macrophages to ligands for TLR2 and TLR4", "setting": "[3]", "value": "selectively inhibiting"},
      {"measurement": "HUVEC tube formation", "setting": "HUVECs [4]", "value": "dose-dependent inhibition"},
      {"measurement": "cytotoxic effects", "setting": "HUVECs [5]", "value": "does not exhibit cytotoxic effects"},
      {"measurement": "ALDH3A1 Microarray Fold change value", "setting": "HUVECs [6]; [7]", "value": 7.7},
      {"measurement": "ANLN Microarray Fold change value", "setting": "HUVECs [6]; [7]", "value": 0.09},
      {"measurement": "CCNB1 Microarray Fold change value", "setting": "HUVECs [6]; [7]", "value": 0.19},
      {"measurement": "CCNE2 Microarray Fold change value", "setting": "HUVECs [6]; [7]", "value": 0.24},
      {"measurement": "CDC2 Microarray Fold change value", "setting": "HUVECs [6]; [7]", "value": 0.08},
      {"measurement": "CDC6 Microarray Fold change value", "setting": "HUVECs [6]; [7]", "value": 0.23},
      {"measurement": "CDKN3 Microarray Fold change value", "setting": "HUVECs [6]; [7]", "value": 0.19},
      {"measurement": "DIAPH3 Microarray Fold change value", "setting": "HUVECs [6]; [7]", "value": 0.34},
      {"measurement": "HMMR Microarray Fold change value", "setting": "HUVECs [6]; [7]", "value": 0.11},
      {"measurement": "KITLG Microarray Fold change value", "setting": "HUVECs [6]; [7]", "value": 6.2},
      {"measurement": "number of differentially expressed genes in response to SsnB exposure", "setting": "HUVECs [6]; HUVECs, 100 μM, 24 h, fold change ≧2, p<0.05", "value": 916, "unit": "genes"},
      {"measurement": "KIF18A expression in microarray data", "setting": "HUVECs [6]; [8]", "value": "downregulated"},
      {"measurement": "TACC3 expression in microarray data", "setting": "HUVECs [6]; [8]", "value": "downregulated"},
      {"measurement": "aurora kinases (AURKA and AURKB) expression in microarray data", "setting": "HUVECs [6]; [8]", "value": "downregulated"}
    ]}
  ]
}
